Patent publication US6358885B1, “Substituted phenylheterocyclic herbicides” (Mississippi State University, priority 1992, dated 2002)

Columns and labels:
Assay in all cases: Test B preemergence/postemergence greenhouse plant response rating 0 to 10
barley = assay type: in vivo, Hordeum vulgare; conditions: for Plant response rating, Barley: 0 to 10 scale
Outline: (§1)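 Test chemicals, dissolved in a non-phytotoxic solvent, were applied to soil at planting and, at the same time, over foliage of seedlings at the one to four leaf stage.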

barnyardgrass = assay type: in vivo, Echinochloa crus-galli; conditions: for Plant response rating, Barnyardgrass: 0 to 10 scale
Outline: as §1

bedstraw = assay type: in vivo, Galium aparine; conditions: for Plant response rating, Bedstraw: 0 to 10 scale
Outline: as §1

blackgrass = assay type: in vivo, Alopecurus myosuroides; conditions: for Plant response rating, Blackgrass: 0 to 10 scale
Outline: as §1

cheatgrass = assay type: in vivo, Bromus secalinus; conditions: for Plant response rating, Cheatgrass: 0 to 10 scale
Outline: as §1

chickweed = assay type: in vivo, Stellaria media; conditions: for Plant response rating, Chickweed: 0 to 10 scale
Outline: as §1

cocklebur = assay type: in vivo, Xanthium pensylvanicum; conditions: for Plant response rating, Cocklebur: 0 to 10 scale
Outline: as §1

corn = assay type: in vivo, Zea mays; conditions: for Plant response rating, Corn: 0 to 10 scale
Outline: as §1

cotton = assay type: in vivo, Gossypium hirsutum; conditions: for Plant response rating, Cotton: 0 to 10 scale
Outline: as §1

crabgrass = assay type: in vivo, Digitaria spp.; conditions: for Plant response rating, Crabgrass: 0 to 10 scale
Outline: as §1

giant foxtail = assay type: in vivo, Setaria faberii; conditions: for Plant response rating, Giant foxtail: 0 to 10 scale
Outline: as §1

lambsquarters = assay type: in vivo, Chenopodium album; conditions: for Plant response rating, Lambsquarter: 0 to 10 scale
Outline: as §1

morningglory = assay type: in vivo, Ipomoea hederacea; conditions: for Plant response rating, Morningglory: 0 to 10 scale
Outline: as §1

rape = assay type: in vivo, Brassica napus; conditions: for Plant response rating, Rape: 0 to 10 scale
Outline: as §1

rice = assay type: in vivo, Oryza sativa; conditions: for Plant response rating, Rice: 0 to 10 scale
Outline: as §1

sorghum = assay type: in vivo, Sorghum bicolor; conditions: for Plant response rating, Sorghum: 0 to 10 scale
Outline: as §1

soybean = assay type: in vivo, Glycine max; conditions: for Plant response rating, Soybean: 0 to 10 scale
Outline: as §1

sugar beet = assay type: in vivo, Beta vulgaris; conditions: for Plant response rating, Sugar beet: 0 to 10 scale
Outline: as §1

velvetleaf = assay type: in vivo, Abutilon theophrasti; conditions: for Plant response rating, Velvetleaf: 0 to 10 scale
Outline: as §1

wheat = assay type: in vivo, Triticum aestivum; conditions: for Plant response rating, Wheat: 0 to 10 scale
Outline: as §1

wild buckwheat = assay type: in vivo, Polygonum convolvulus; conditions: for Plant response rating, Wild buckwheat: 0 to 10 scale
Outline: as §1

wild oat = assay type: in vivo, Avena fatua; conditions: for Plant response rating, Wild oat: 0 to 10 scale
Outline: as §1

purple nutsedge = assay type: in vivo, Cyperus rotundus; conditions: for Plant response rating, Nutsedge: 0 to 10 scale
Outline: as §1

COCCOc1cc(-c2nn3c(c2Cl)CCCC3)c(Cl)cc1Cl [Compound 72]
Plant response rating, Barley (barley; POSTEMERGENCE, Rate 50 g/ha): 4
Plant response rating, Barley (barley; PREEMERGENCE, Rate 50 g/ha): 0
Plant response rating (0 to 10 scale), Barley (barley; PREEMERGENCE, Rate 200 g/ha): 0
Plant response rating, Barley (barley; Rate 200 g/ha, POSTEMERGENCE): 5
Plant response rating, Barnyardgrass (barnyardgrass; POSTEMERGENCE, Rate 50 g/ha): 5
Plant response rating, Barnyardgrass (barnyardgrass; PREEMERGENCE, Rate 50 g/ha): 3
Plant response rating (0 to 10 scale), Barnyardgrass (barnyardgrass; PREEMERGENCE, Rate 200 g/ha): 3
Plant response rating, Barnyardgrass (barnyardgrass; Rate 200 g/ha, POSTEMERGENCE): 7
Plant response rating, Bedstraw (bedstraw; POSTEMERGENCE, Rate 50 g/ha): 7
Plant response rating, Bedstraw (bedstraw; PREEMERGENCE, Rate 50 g/ha): 0
Plant response rating (0 to 10 scale), Bedstraw (bedstraw; PREEMERGENCE, Rate 200 g/ha): 8
Plant response rating, Bedstraw (bedstraw; Rate 200 g/ha, POSTEMERGENCE): 9
Plant response rating, Blackgrass (blackgrass; POSTEMERGENCE, Rate 50 g/ha): 5
Plant response rating, Blackgrass (blackgrass; PREEMERGENCE, Rate 50 g/ha): 0
Plant response rating (0 to 10 scale), Blackgrass (blackgrass; PREEMERGENCE, Rate 200 g/ha): 4
Plant response rating, Blackgrass (blackgrass; Rate 200 g/ha, POSTEMERGENCE): 7
Plant response rating, Cheatgrass (cheatgrass; POSTEMERGENCE, Rate 50 g/ha): 5
Plant response rating, Cheatgrass (cheatgrass; PREEMERGENCE, Rate 50 g/ha): 0
Plant response rating (0 to 10 scale), Cheatgrass (cheatgrass; PREEMERGENCE, Rate 200 g/ha): 3
Plant response rating, Cheatgrass (cheatgrass; Rate 200 g/ha, POSTEMERGENCE): 6
Plant response rating, Chickweed (chickweed; POSTEMERGENCE, Rate 50 g/ha): 2
Plant response rating, Chickweed (chickweed; PREEMERGENCE, Rate 50 g/ha): 0
Plant response rating (0 to 10 scale), Chickweed (chickweed; PREEMERGENCE, Rate 200 g/ha): 9
Plant response rating, Chickweed (chickweed; Rate 200 g/ha, POSTEMERGENCE): 3
Plant response rating, Cocklebur (cocklebur; POSTEMERGENCE, Rate 50 g/ha): 8
Plant response rating, Cocklebur (cocklebur; PREEMERGENCE, Rate 50 g/ha): 0
Plant response rating (0 to 10 scale), Cocklebur (cocklebur; PREEMERGENCE, Rate 200 g/ha): 0
Plant response rating, Cocklebur (cocklebur; Rate 200 g/ha, POSTEMERGENCE): 10
Plant response rating, Corn (corn; POSTEMERGENCE, Rate 50 g/ha): 3
Plant response rating, Corn (corn; PREEMERGENCE, Rate 50 g/ha): 0
Plant response rating (0 to 10 scale), Corn (corn; PREEMERGENCE, Rate 200 g/ha): 2
Plant response rating, Corn (corn; Rate 200 g/ha, POSTEMERGENCE): 5
Plant response rating, Cotton (cotton; POSTEMERGENCE, Rate 50 g/ha): 10
Plant response rating, Cotton (cotton; PREEMERGENCE, Rate 50 g/ha): 0
Plant response rating (0 to 10 scale), Cotton (cotton; PREEMERGENCE, Rate 200 g/ha): 0
Plant response rating, Cotton (cotton; Rate 200 g/ha, POSTEMERGENCE): 10
Plant response rating, Crabgrass (crabgrass; POSTEMERGENCE, Rate 50 g/ha): 2
Plant response rating, Crabgrass (crabgrass; PREEMERGENCE, Rate 50 g/ha): 0
Plant response rating (0 to 10 scale), Crabgrass (crabgrass; PREEMERGENCE, Rate 200 g/ha): 9
Plant response rating, Crabgrass (crabgrass; Rate 200 g/ha, POSTEMERGENCE): 2
Plant response rating, Giant foxtail (giant foxtail; POSTEMERGENCE, Rate 50 g/ha): 4
Plant response rating, Giant foxtail (giant foxtail; PREEMERGENCE, Rate 50 g/ha): 3
Plant response rating (0 to 10 scale), Giant foxtail (giant foxtail; PREEMERGENCE, Rate 200 g/ha): 7
Plant response rating, Giant foxtail (giant foxtail; Rate 200 g/ha, POSTEMERGENCE): 5
Plant response rating, Lambsquarter (lambsquarters; POSTEMERGENCE, Rate 50 g/ha): 10
Plant response rating, Lambsquarter (lambsquarters; PREEMERGENCE, Rate 50 g/ha): 9
Plant response rating (0 to 10 scale), Lambsquarter (lambsquarters; PREEMERGENCE, Rate 200 g/ha): 10
Plant response rating, Lambsquarter (lambsquarters; Rate 200 g/ha, POSTEMERGENCE): 10
Plant response rating, Morningglory (morningglory; POSTEMERGENCE, Rate 50 g/ha): 7
Plant response rating, Morningglory (morningglory; PREEMERGENCE, Rate 50 g/ha): 0
Plant response rating (0 to 10 scale), Morningglory (morningglory; PREEMERGENCE, Rate 200 g/ha): 0
Plant response rating, Morningglory (morningglory; Rate 200 g/ha, POSTEMERGENCE): 9
Plant response rating, Rape (rape; POSTEMERGENCE, Rate 50 g/ha): 9
Plant response rating, Rape (rape; PREEMERGENCE, Rate 50 g/ha): 0
Plant response rating (0 to 10 scale), Rape (rape; PREEMERGENCE, Rate 200 g/ha): 6
Plant response rating, Rape (rape; Rate 200 g/ha, POSTEMERGENCE): 9
Plant response rating, Rice (rice; POSTEMERGENCE, Rate 50 g/ha): 4
Plant response rating, Rice (rice; PREEMERGENCE, Rate 50 g/ha): 0
Plant response rating (0 to 10 scale), Rice (rice; PREEMERGENCE, Rate 200 g/ha): 0
Plant response rating, Rice (rice; Rate 200 g/ha, POSTEMERGENCE): 6
Plant response rating, Sorghum (sorghum; POSTEMERGENCE, Rate 50 g/ha): 5
Plant response rating, Sorghum (sorghum; PREEMERGENCE, Rate 50 g/ha): 0
Plant response rating (0 to 10 scale), Sorghum (sorghum; PREEMERGENCE, Rate 200 g/ha): 0
Plant response rating, Sorghum (sorghum; Rate 200 g/ha, POSTEMERGENCE): 6
Plant response rating, Soybean (soybean; POSTEMERGENCE, Rate 50 g/ha): 6
Plant response rating, Soybean (soybean; PREEMERGENCE, Rate 50 g/ha): 0
Plant response rating (0 to 10 scale), Soybean (soybean; PREEMERGENCE, Rate 200 g/ha): 0
Plant response rating, Soybean (soybean; Rate 200 g/ha, POSTEMERGENCE): 7
Plant response rating, Sugar beet (sugar beet; POSTEMERGENCE, Rate 50 g/ha): 10
Plant response rating, Sugar beet (sugar beet; PREEMERGENCE, Rate 50 g/ha): 0
Plant response rating (0 to 10 scale), Sugar beet (sugar beet; PREEMERGENCE, Rate 200 g/ha): 9
Plant response rating, Sugar beet (sugar beet; Rate 200 g/ha, POSTEMERGENCE): 10
Plant response rating, Velvetleaf (velvetleaf; POSTEMERGENCE, Rate 50 g/ha): 9
Plant response rating, Velvetleaf (velvetleaf; PREEMERGENCE, Rate 50 g/ha): 0
Plant response rating (0 to 10 scale), Velvetleaf (velvetleaf; PREEMERGENCE, Rate 200 g/ha): 10
Plant response rating, Velvetleaf (velvetleaf; Rate 200 g/ha, POSTEMERGENCE): 10
Plant response rating, Wheat (wheat; POSTEMERGENCE, Rate 50 g/ha): 5
Plant response rating, Wheat (wheat; PREEMERGENCE, Rate 50 g/ha): 0
Plant response rating (0 to 10 scale), Wheat (wheat; PREEMERGENCE, Rate 200 g/ha): 3
Plant response rating, Wheat (wheat; Rate 200 g/ha, POSTEMERGENCE): 5
Plant response rating, Wild buckwheat (wild buckwheat; POSTEMERGENCE, Rate 50 g/ha): 10
Plant response rating, Wild buckwheat (wild buckwheat; PREEMERGENCE, Rate 50 g/ha): 0
Plant response rating (0 to 10 scale), Wild buckwheat (wild buckwheat; PREEMERGENCE, Rate 200 g/ha): 2
Plant response rating, Wild buckwheat (wild buckwheat; Rate 200 g/ha, POSTEMERGENCE): 10
Plant response rating, Wild oat (wild oat; POSTEMERGENCE, Rate 50 g/ha): 3
Plant response rating, Wild oat (wild oat; PREEMERGENCE, Rate 50 g/ha): 0
Plant response rating (0 to 10 scale), Wild oat (wild oat; PREEMERGENCE, Rate 200 g/ha): 3
Plant response rating, Wild oat (wild oat; Rate 200 g/ha, POSTEMERGENCE): 4
Plant response rating, Nutsedge (purple nutsedge; POSTEMERGENCE, Rate 50 g/ha): 2
Plant response rating, Nutsedge (purple nutsedge; PREEMERGENCE, Rate 50 g/ha): 0
Plant response rating (0 to 10 scale), Nutsedge (purple nutsedge; PREEMERGENCE, Rate 200 g/ha): 4
Plant response rating, Nutsedge (purple nutsedge; Rate 200 g/ha, POSTEMERGENCE): 2
